In patent US8182794B2, “Sunless tanning products and processes” (Concept Laboratories, priority 2003, dated 2012):
Entries after “also recorded” stand apart in the source; their conditions may differ.

The compounds below were run on human skin (assay: Colorimeter (Minolta CR-10) L* a* b* readings of sunless tan on forearm skin). Conditions: 5% additive with 5% DHA and 5% MSM; Table 1 series.
Format: in vivo
Method: An equal amount of each formula solution (approximately 150 mg.) from Table 1 was applied to 2″×2″ adjacent sections of forearm, allowed to dry and covered with clothing for the duration of the testing. The application areas were visibly the same color prior to treatment with the solutions and this was confirmed via calorimeter readings. Readings were typically made 24-48 hours post application of the test solutions. Three calorimeter readings were made of each treatment area with a Minolta CR-10 adapted for human skin readings and the readings were averaged. All eight formulas shown in Table 1 were evaluated on several individuals with Fitzpatrick skin types I-III. Although the absolute values for the tanning responses differed between individuals, the relative differences between formulations in terms of tanning response were the same. Typical results of the testing of one subject were recorded in average L* a* b* color values and are shown in Table 2 along with baseline skin color. […]
The results shown in Table 12 were confirmed by several repeat experiments conducted on several relatively light-skin individuals (Fitzpatrick Type I-III). The data are based on calculation of the average increase in skin darkening based on skin color changes measured by the colorimeter “L” or light-dark value [(Δ L)]; the average increase in skin hue intensity measured simultaneously by both the colorimeter “a*” or red value and the colorimeter “b*” or yellow value (Δ√a^2+b^2); and, the average increase in total tan which adds the changes in darkness and hue increases [(Δ L)+Δ√a^2+b^2].

Compound | effect of additive on tanning response of DHA and MSM
CCCC(O)CO (stereo not drawn) [pentylene glycol, 1,2-pentanediol] | darker tanning responses; also recorded: significantly increase
CC(O)CO (stereo not drawn) [propylene glycol] | darker tanning responses
OCCCCO [butylene glycol] | darker tanning responses; also recorded: significantly increase
